One molecule from patent US20090196950A1, “METHODS OF FEEDING PIGS AND PRODUCTS COMPRISING BENEFICIAL FATTY ACIDS” (Monsanto Company, priority 2008, published 2009) can be followed below.

This assay can be described thus: 35 day feeding study in pigs: fatty acid composition of pork tissues (belly, loin, ham, skin) by GC-FID of FAMEs. The assay is classed as in vivo. The procedure:
A 35 day study was conducted to determine whether pigs fed a diet containing SDA could produce meat with improved fatty acid profiles including increased levels of SDA, EPA, and DHA.
A control diet (Treatment 1) formulated to meet or exceed NRC (1998) nutrient requirements for pigs in the late finishing phase (approximately 80-120 kg BW containing 1.14% corn oil and no added SDA ethyl ester (70% w/w SDA) were fed ad libitum during an acclimation period of at least 1 week duration. Ethoxyquin was included in all diets as an antioxidant at a concentration of 150 parts per million (0.015%, as-fed basis), the maximum level allowed by FDA regulation in animal feeds. The same control diet was fed ad libitum to the control pigs (pen receiving Treatment 1) throughout a 35-day test period. Four test diets (Treatment 2, 3, 4, and 5) with SDA ethyl ester substituted for corn oil to provide 0.2, 0.4, 0.6 and 0.8% (w/w SDA active ingredient, as-is basis) were fed ad libitum to one pen of four pigs throughout the 35-day test period Table 4). All diets were fed in meal form.
All pigs were individually weighed at initiation of the acclimation and test period, and immediately prior to slaughter. Feed consumption per pen was recorded. […] Live weights prior to slaughter and hot carcass weights were recorded. […] Prior to removing the sample for sensory and fatty and proximate analysis from the belly the firmness of the belly was evaluated using a flop test. At 24 hr postmortem fat thickness (10th rib), loin eye area (10th rib), visual color, firmness and marbling, Minolta color (L*a*b*), pH, and drip loss were measured. […]
In order to evaluate the fatty acid composition of pig tissues (loin, ham, skin, and belly), samples were stored at −80° C. until evaluation. […] Resultant fatty acid methyl esters (FAME's) were separated by capillary gas chromatography (GC) and detected by flame ionization detector (FID). […] Quantification was achieved by using an internal standard (c15:0 triacylglyceride (TAG) for pig tissue samples and c17:0 TAG for diet samples). […]

With `CC/C=C\C/C=C\C/C=C\C/C=C\CCCCC(=O)O` [SDA, stearidonic acid], the “enrichment of SDA, ETA, and EPA in belly, loin, ham, and skin tissues” value (0.2-0.8% SDA in feed, 35 days) is “enriched in belly, loin, ham, and skin tissues in a dose dependent manner”. Also, for the setting “SDA supplementation, 35 days”, the “levels of SDA, ETA, EPA, DPA in belly, loin, ham and skin tissues and DHA in ham tissue as compared to the control” value is given as “higher levels”. Moreover, the “omega 3 fatty acid enrichment in belly, loin, ham and skin tissues as compared to the control” value (pigs fed SDA for the last 35 days prior to slaughter) is recorded as “significant increase”.
